The text below walks through data of US4492694A, “Indolylglycyl cephalosporin derivatives” (Eli Lilly and Company, priority 1983, dated 1985).

In brackets after ≈: the same amount, converted by molar mass. Counter-ions that a name gives are not always drawn. Like-named read-outs stand apart in the source and are kept apart here.

One data set deals with Salmonella. Nature of the data set: Agar dilution MIC. The data set is classed as cell-based. The text has this:
(§1) A typical and preferred compound provided by this invention is 7-(3-indolylglycylamido)-3-methyl-3-cephem-4-carboxylic acid, the compound illustrated in Example 2. The antibacterial activity of this compound and others of the invention has been determined in standard in vitro agar dilution assays against a variety of gram positive and gram negative microorganisms. The following Table presents typical minimum inhibitory concentrations (MIC's) in μg/ml for several compounds of the invention when evaluated against the indicated microorganisms. MIC's for several known compounds are also presented for comparison.

The next data set deals with Enterobacter. The data set is described as follows: Agar dilution MIC. The data set is classed as cell-based. The conditions noted are these: for MIC: Enterobacter. A general note: In agar dilution, organisms are placed on agar that contains the substance at set levels.
A further data set has as its system Staph. aureus. The data set is described as follows: Agar dilution MIC. In kind it is cell-based. The conditions noted are these: Staphylococcus aureus.
A further data set relates to Klebsiella. The data set is described as follows: Agar dilution MIC. The data set is classed as cell-based.
The subject of another data set is E. coli. The data set is described as follows: Agar dilution MIC. The data set is classed as cell-based. As to conditions: Escherichia coli.
In a further data set the test system is Staph. epi. The data set is described as follows: Agar dilution MIC. In kind it is cell-based. As to conditions: for Agar Dilution MIC: strain EPI2.
Source text: as §1

The test system of another data set is Strep. A. Nature of the data set: Agar dilution MIC. As to conditions: strain C203. The data set is classed as cell-based.
Data set [1] in a line: Recovery in urine and bile after subcutaneous dose. The data set is classed as in vivo. As to conditions: rat, sc, rats, 20 mg/kg. As to the method:
(§2) For example, when 7-(3-indolylglycylamido)-3-methyl-3-cephem-4-carboxylic acid was administered to rats at an intravenous dose of 20 mg/kg, the plasma concentration after one hour was 15.0 μg/ml, and after four hours, 6.0 μg/ml. About 60% of the above compound was recovered in the urine of rats following a 20 mg/kg subcutaneous dose. Less than 5% was recovered from the bile.

The nature of data set [2]: Pharmacokinetics, plasma concentration after intravenous dose. As to conditions: rat, rats, 20 mg/kg. In kind it is in vivo. As to the method:
as §2

The test system of a further data set is Strep PN. The data set is described as follows: Agar dilution MIC. In kind it is cell-based. As to conditions: strain PARK.
Another data set concerns Strep. D. The data set is described as follows: Agar dilution MIC. In kind it is cell-based. As to conditions: read-out: Agar Dilution MIC.
The test system of another data set is Shig. sonn. The data set is described as follows: Agar dilution MIC. In kind it is cell-based. As to conditions: strain N9.
The mark [3] stands for this setting: read-out: Agar Dilution MIC, strain X514.
The mark [4] stands for this setting: strain 1335, read-out: Agar Dilution MIC.
Where [5] appears, read: strain X68, read-out: Agar Dilution MIC.
Setting [6] is: strain V41, read-out: Agar Dilution MIC.
Setting [7] is: strain X1.1, read-out: Agar Dilution MIC.
Setting [8] is: strain EPI1, read-out: Agar Dilution MIC.
[9] abbreviates: strain X26, read-out: Agar Dilution MIC.
Where [10] appears, read: read-out: Agar Dilution MIC, strain S13E.
The mark [11] stands for this setting: strain X400, read-out: Agar Dilution MIC.

Turning to `CC1(C)S[C@@H]2[C@H](NC(=O)[C@H](N)c3ccccc3)C(=O)N2[C@H]1C(=O)O` [Ampicillin, reference compound], the MIC (as a rule, the lowest concentration found to suppress growth) was determined as 1 µg/mL (≈ 2.86 µM) in the data set with Salmonella (setting [3]); 4 µg/mL (≈ 11.4 µM) in the data set with Salmonella (setting [4]); 8 µg/mL (≈ 22.9 µM) in the data set with Enterobacter (setting [5]); 0.125 µg/mL (≈ 0.358 µM) in the data set on Staph. aureus (read-out: Agar Dilution MIC); 8 µg/mL (≈ 22.9 µM) with Staph. aureus (setting [6]).
With `CC1=C(C(=O)O)N2C(=O)[C@@H](NC(=O)[C@H](N)c3ccccc3)[C@H]2SC1` [Cephalexin, reference compound], the MIC in the data set with Salmonella (setting [3]) was found to be 0.6 µg/mL (≈ 1.73 µM); in the data set on Salmonella (setting [4]), 0.25 µg/mL (≈ 0.72 µM); in the data set with Enterobacter (read-out: Agar Dilution MIC, strain C32) it was 0.125 µg/mL (≈ 0.36 µM); with Enterobacter (read-out: Agar Dilution MIC, strain EB17), 0.06 µg/mL (≈ 0.173 µM); with Enterobacter (setting [5]), 0.03 µg/mL (≈ 0.0864 µM); with Klebsiella (read-out: Agar Dilution MIC), 2 µg/mL (≈ 5.76 µM). The minimal inhibitory concentration (MIC) in the data set with Staph. aureus (setting [7]) was 2 µg/mL (≈ 5.76 µM).
Consider `CC1=C(C(=O)O)N2C(=O)[C@@H](NC(=O)[C@H](N)c3c[nH]c4ccccc34)C2SC1` (stereo partly drawn) [Ex. 2, D-7-(3-Indolylglycylamido)-3-methyl-3-cephem-4-carboxylic acid trifluoroacetate], for which the minimal inhibitory concentration (MIC) was 32 µg/mL with E. coli (strain EC14); 32 µg/mL in the data set with E. coli (strain N10); 16 µg/mL with E. coli (strain TEM); 16 µg/mL with Staph. epi (setting [8]); 32 µg/mL in the data set on Salmonella (setting [3]); 128 µg/mL in the data set on Salmonella (setting [4]). The minimal inhibitory concentration (MIC) in the data set on Enterobacter (read-out: Agar Dilution MIC, strain X68) was 32 µg/mL; in the data set with Enterobacter (strain C32, read-out: Agar Dilution MIC), more than 128 µg/mL; in the data set with Strep. A it was 0.25 µg/mL; against Strep PN, 0.5 µg/mL; in the data set with Klebsiella (setting [9]), 16 µg/mL; in the data set on Strep. D, 32 µg/mL. Besides, the minimal inhibitory concentration (MIC) came out at 16 µg/mL in the data set with Strep. D (strain 9960); 32 µg/mL with Staph. aureus (setting [10]); 4 µg/mL in the data set on Staph. aureus (setting [7]); 64 µg/mL in the data set with Staph. aureus (setting [11]); 8 µg/mL in the data set with Staph. aureus (setting [6]). Also, the “Agar Dilution MIC” value was 16 µg/mL in the data set on Staph. epi and more than 128 µg/mL in the data set on Enterobacter (strain EB17). The dose excreted in data set [1] (bile, read-out: recovered from the bile) was less than 5%; in data set [1] (urine, read-out: recovered in the urine), approximately 60%. Besides, the concentration at 4 h in [2] (four hours) was 6000 ng/mL. This molecule also displayed a concentration at 1 h in data set [2] (one hour) of 15000 ng/mL.
With `N[C@@H](C(=O)N[C@@H]1C(=O)N2C(C(=O)O)=C(Cl)CSC12)c1c[nH]c2ccccc12` (stereo partly drawn) [Ex. 3, D-7-(3-indolylglycylamido)-3-chloro-3-cephem-4-carboxylic acid trifluoroacetate], the minimum inhibitory concentration (MIC) with E. coli (strain EC14) was found to be 8 µg/mL; in the data set with E. coli (strain N10), 16 µg/mL; in the data set on E. coli (strain TEM), 16 µg/mL; in the data set with Staph. epi (read-out: Agar Dilution MIC, strain EPI2), 32 µg/mL; with Staph. epi (setting [8]) it was 16 µg/mL; with Salmonella (setting [3]), 16 µg/mL. Further, the MIC was 16 µg/mL with Salmonella (setting [4]); more than 128 µg/mL in the data set with Enterobacter (setting [5]); 0.5 µg/mL in the data set with Strep. A; 0.25 µg/mL in the data set on Strep PN; 4 µg/mL in the data set with Klebsiella (setting [9]); 16 µg/mL in the data set with Klebsiella (setting [5]). The MIC in the data set on Strep. D (strain 9960) was determined as 16 µg/mL; in the data set on Strep. D (strain X66) it was 16 µg/mL; with Staph. aureus (read-out: Agar Dilution MIC), 32 µg/mL; in the data set with Staph. aureus (setting [10]) it was 8 µg/mL; in the data set with Staph. aureus (setting [7]) it was 4 µg/mL; with Staph. aureus (setting [11]), 64 µg/mL. In addition, the “Agar Dilution MIC” value with Enterobacter (strain C32) and in the data set on Enterobacter (strain EB17) was more than 128 µg/mL each time.
As for `COC1=C(C(=O)O)N2C(=O)[C@@H](NC(=O)[C@H](N)c3c[nH]c4ccccc34)C2SC1` (stereo partly drawn) [Ex. 4, D-7-(3-Indolylglycylamido)-3-methoxy-3-cephem-4-carboxylic acid], the minimum inhibitory concentration (MIC) against E. coli (strain EC14) was determined as 8 µg/mL (≈ 19.9 µM); in the data set on E. coli (strain N10), 16 µg/mL (≈ 39.8 µM); against E. coli (strain TEM), 32 µg/mL (≈ 79.5 µM); in the data set with Staph. epi (setting [8]), 16 µg/mL (≈ 39.8 µM); in the data set on Salmonella (setting [3]) it was 16 µg/mL (≈ 39.8 µM); in the data set on Salmonella (setting [4]), 32 µg/mL (≈ 79.5 µM). Besides, the minimum inhibitory concentration (MIC) in the data set on Enterobacter (setting [5]) was more than 128 µg/mL; in the data set on Strep. A, 0.25 µg/mL (≈ 0.621 µM); with Strep PN, 0.5 µg/mL (≈ 1.24 µM); in the data set on Klebsiella (setting [9]) it was 16 µg/mL (≈ 39.8 µM); in the data set on Klebsiella (setting [5]), 16 µg/mL (≈ 39.8 µM); in the data set on Strep. D (strain 9960) it was 16 µg/mL (≈ 39.8 µM). Further, the minimum inhibitory concentration (MIC) with Strep. D (strain X66) came to 64 µg/mL (≈ 159 µM); with Shig. sonn., 32 µg/mL (≈ 79.5 µM); in the data set with Staph. aureus (read-out: Agar Dilution MIC), 32 µg/mL (≈ 79.5 µM); in the data set on Staph. aureus (setting [10]) it was 8 µg/mL (≈ 19.9 µM); in the data set on Staph. aureus (setting [7]), 4 µg/mL (≈ 9.94 µM); in the data set on Staph. aureus (setting [11]) it was 64 µg/mL (≈ 159 µM). In addition, the “Agar Dilution MIC” value in the data set with Staph. epi is 16 µg/mL; with Enterobacter (strain C32), more than 128 µg/mL; in the data set with Enterobacter (strain EB17) it was more than 128 µg/mL.
